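Five concentrations, 48 hours, 96-well plates. TGI: total growth inhibition.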
How the values were obtained:
Test in all cases: growth of human tumour cells (NCI), 48 h
[1] = test system: HS 578T breast
[2] = test system: SN12C renal
[3] = test system: SF-295 CNS
[4] = test system: BT-549 breast
[5] = test system: HL-60(TB) leukemia
[6] = test system: NCI/ADR-RES ovarian
[7] = test system: OVCAR-5 ovarian
[8] = test system: HCT-116 colon
[9] = test system: U251 CNS
[10] = test system: MDA-MB-231 breast
[11] = test system: MALME-3M melanoma
[12] = test system: PC-3 prostate
[13] = test system: RXF 393 renal
[14] = test system: SW-620 colon
[15] = test system: MCF7 breast
[16] = test system: SK-MEL-5 melanoma
[17] = test system: IGROV1 ovarian
[18] = test system: EKVX NSCLC
[19] = test system: HCT-15 colon
[20] = test system: MDA-N
[21] = test system: A498 renal
[22] = test system: SR leukemia
[23] = test system: 786-0 renal
[24] = test system: M14 melanoma
[25] = test system: MOLT-4 leukemia
[26] = test system: SNB-19 CNS
[27] = test system: SF-539 CNS
[28] = test system: DU-145 prostate
[29] = test system: NCI-H460 lung
[30] = test system: NCI-H226 lung
[31] = test system: UACC-62 melanoma
[32] = test system: A549 NSCLC
[33] = test system: HOP-62 NSCLC
[34] = test system: HT29 colon
[35] = test system: SK-MEL-2 melanoma
[36] = test system: SNB-75 CNS
[37] = test system: K-562 leukemia
[38] = test system: SK-MEL-28 melanoma
[39] = test system: OVCAR-8 ovarian
[40] = test system: UACC-257 melanoma
[41] = test system: OVCAR-4 ovarian
[42] = test system: COLO 205 colon
[43] = test system: MDA-MB-435
[44] = test system: LOX IMVI melanoma
[45] = test system: NCI-H522 lung
[46] = test system: CAKI-1 renal
[47] = test system: SK-OV-3 ovarian
[48] = test system: OVCAR-3 ovarian
[49] = test system: KM12 colon
[50] = test system: RPMI-8226 leukemia
[51] = test system: SF-268 CNS
[52] = test system: T-47D breast
[53] = test system: UO-31 renal
[54] = test system: CCRF-CEM leukemia
[55] = test system: TK-10 renal
[56] = test system: NCI-H23 lung
[57] = test system: HCC-2998 colon
[58] = test system: ACHN renal
[59] = test system: HOP-92 NSCLC

SMILES: Cc1ccnc(NC(=S)Nc2ccccc2Cl)c1
- TGI [1]: > 100 µM
- TGI [2]: > 100 µM
- TGI [3]: > 100 µM
- TGI [4]: > 100 µM
- TGI [5]: > 100 µM
- TGI [6]: > 100 µM
- TGI [7]: > 100 µM
- TGI [8]: > 100 µM
- TGI [9]: > 100 µM
- TGI [10]: 45.7 µM
- TGI [11]: > 100 µM
- TGI [12]: > 100 µM
- TGI [13]: > 100 µM
- TGI [14]: > 100 µM
- TGI [15]: > 100 µM
- TGI [16]: > 100 µM
- TGI [17]: > 100 µM
- TGI [18]: > 100 µM
- TGI [19]: > 100 µM
- TGI [20]: > 100 µM
- TGI [21]: > 100 µM
- TGI [22]: > 100 µM
- TGI [23]: > 100 µM
- TGI [24]: > 100 µM
- TGI [25]: > 100 µM
- TGI [26]: > 100 µM
- TGI [27]: > 100 µM
- TGI [28]: > 100 µM
- TGI [29]: > 100 µM
- TGI [30]: > 100 µM
- TGI [31]: > 100 µM
- TGI [32]: > 100 µM
- TGI [33]: > 100 µM
- TGI [34]: > 100 µM
- TGI [35]: > 100 µM
- TGI [36]: 71.7 µM
- TGI [37]: > 100 µM
- TGI [38]: > 100 µM
- TGI [39]: > 100 µM
- TGI [40]: > 100 µM
- TGI [41]: > 100 µM
- TGI [42]: > 100 µM
- TGI [43]: > 100 µM
- TGI [44]: > 100 µM
- TGI [45]: > 100 µM
- TGI [46]: > 100 µM
- TGI [47]: > 100 µM
- TGI [48]: > 100 µM
- TGI [49]: > 100 µM
- TGI [50]: > 100 µM
- TGI [51]: > 100 µM
- TGI [52]: > 100 µM
- TGI [53]: > 100 µM
- TGI [54]: > 100 µM
- TGI [55]: > 100 µM

SMILES: COc1ccc(N2CCN(c3ccc4c(c3)NCC(=O)N4)CC2)cc1
- TGI [1]: 67.1 µM
- TGI [56]: > 100 µM
- TGI [2]: > 100 µM
- TGI [3]: > 100 µM
- TGI [4]: > 100 µM
- TGI [5]: 47.5 µM
- TGI [6]: 68.5 µM
- TGI [7]: > 100 µM
- TGI [8]: > 100 µM
- TGI [9]: 68.6 µM
- TGI [10]: > 100 µM
- TGI [11]: > 100 µM
- TGI [12]: > 100 µM
- TGI [14]: > 100 µM
- TGI [15]: > 100 µM
- TGI [16]: > 100 µM
- TGI [17]: > 100 µM
- TGI [18]: > 100 µM
- TGI [57]: > 100 µM
- TGI [19]: > 100 µM
- TGI [20]: > 100 µM
- TGI [22]: 44.4 µM
- TGI [23]: > 100 µM
- TGI [24]: > 100 µM
- TGI [25]: > 100 µM
- TGI [26]: > 100 µM
- TGI [27]: 54.1 µM
- TGI [28]: > 100 µM
- TGI [29]: > 100 µM
- TGI [30]: > 100 µM
- TGI [31]: 56.5 µM
- TGI [32]: > 100 µM
- TGI [33]: > 100 µM
- TGI [34]: > 100 µM
- TGI [35]: 69.6 µM
- TGI [36]: 93.8 µM
- TGI [37]: > 100 µM
- TGI [38]: > 100 µM
- TGI [39]: > 100 µM
- TGI [40]: > 100 µM
- TGI [41]: 77.3 µM
- TGI [42]: > 100 µM
- TGI [58]: > 100 µM
- TGI [43]: > 100 µM
- TGI [44]: > 100 µM
- TGI [45]: 30.8 µM
- TGI [46]: > 100 µM
- TGI [47]: > 100 µM
- TGI [48]: > 100 µM
- TGI [49]: 49 µM
- TGI [50]: 67.5 µM
- TGI [59]: 63.5 µM
- TGI [51]: > 100 µM
- TGI [52]: 33.4 µM
- TGI [53]: 70.4 µM
- TGI [54]: > 100 µM
- TGI [55]: > 100 µM

SMILES: CC1OC(OC2C(OC3C[C@@]4(C)C(C[C@H](O)[C@H]5[C@H](C6(C)CCC(C(C)(C)O)O6)CCC54C)[C@]4(C)CC[C@@H](O)C(C)(C)C34)OC(CO)C(O)C2O)C(O)C(O)C1O (stereo partly specified) (tested in a mixture with another compound)
- TGI [1]: > 100 µM
- TGI [56]: > 100 µM
- TGI [2]: > 100 µM
- TGI [3]: > 100 µM
- TGI [4]: > 100 µM
- TGI [5]: > 100 µM
- TGI [7]: > 100 µM
- TGI [8]: > 100 µM
- TGI [9]: > 100 µM
- TGI [10]: > 100 µM
- TGI [12]: > 100 µM
- TGI [13]: > 100 µM
- TGI [14]: > 100 µM
- TGI [15]: > 100 µM
- TGI [16]: > 100 µM
- TGI [17]: > 100 µM
- TGI [18]: > 100 µM
- TGI [57]: > 100 µM
- TGI [19]: > 100 µM
- TGI [20]: > 100 µM
- TGI [21]: > 100 µM
- TGI [22]: > 100 µM
- TGI [23]: > 100 µM
- TGI [24]: > 100 µM
- TGI [25]: > 100 µM
- TGI [26]: > 100 µM
- TGI [27]: > 100 µM
- TGI [28]: > 100 µM
- TGI [29]: > 100 µM
- TGI [30]: > 100 µM
- TGI [31]: > 100 µM
- TGI [32]: > 100 µM
- TGI [33]: > 100 µM
- TGI [34]: > 100 µM
- TGI [35]: > 100 µM
- TGI [36]: > 100 µM
- TGI [37]: > 100 µM
- TGI [38]: > 100 µM
- TGI [39]: > 100 µM
- TGI [40]: > 100 µM
- TGI [41]: > 100 µM
- TGI [42]: > 100 µM
- TGI [58]: > 100 µM
- TGI [43]: > 100 µM
- TGI [44]: > 100 µM
- TGI [45]: > 100 µM
- TGI [46]: > 100 µM
- TGI [47]: > 100 µM
- TGI [48]: > 100 µM
- TGI [49]: > 100 µM
- TGI [50]: > 100 µM
- TGI [59]: > 100 µM
- TGI [51]: > 100 µM
- TGI [52]: > 100 µM
- TGI [53]: > 100 µM
- TGI [54]: > 100 µM
- TGI [55]: > 100 µM

SMILES: C=C1C(=O)[C@]23[C@H](O)[C@H]1CC[C@H]2[C@@]12CO[C@@]3(O)C[C@@H]1C(C)(C)CC[C@@H]2O
- TGI [1]: 22.2 µM
- TGI [56]: > 25 µM
- TGI [2]: > 25 µM
- TGI [3]: > 25 µM
- TGI [4]: 8.33 µM
- TGI [5]: > 25 µM
- TGI [6]: > 25 µM
- TGI [7]: > 25 µM
- TGI [8]: 16.2 µM
- TGI [10]: 17.9 µM
- TGI [11]: 23.4 µM
- TGI [12]: > 25 µM
- TGI [13]: 11.5 µM
- TGI [14]: 13.8 µM
- TGI [15]: 13.1 µM
- TGI [16]: > 25 µM
- TGI [17]: 20.9 µM
- TGI [18]: > 25 µM
- TGI [57]: 23.4 µM
- TGI [19]: 19.6 µM
- TGI [20]: > 25 µM
- TGI [21]: 20.1 µM
- TGI [22]: > 25 µM
- TGI [23]: > 25 µM
- TGI [25]: > 25 µM
- TGI [26]: > 25 µM
- TGI [27]: 16.7 µM
- TGI [28]: > 25 µM
- TGI [30]: > 25 µM
- TGI [32]: > 25 µM
- TGI [33]: > 25 µM
- TGI [34]: > 25 µM
- TGI [36]: > 25 µM
- TGI [37]: > 25 µM
- TGI [38]: 22.3 µM
- TGI [39]: > 25 µM
- TGI [40]: 21.1 µM
- TGI [41]: > 25 µM
- TGI [42]: 7.52 µM
- TGI [58]: 18.9 µM
- TGI [43]: 7.61 µM
- TGI [44]: 13.9 µM
- TGI [45]: 8.8 µM
- TGI [46]: > 25 µM
- TGI [48]: > 25 µM
- TGI [49]: 18.4 µM
- TGI [50]: > 25 µM
- TGI [59]: > 25 µM
- TGI [51]: 20.9 µM
- TGI [53]: > 25 µM
- TGI [54]: > 25 µM
- TGI [55]: > 25 µM

— PubChem BioAssay (NCI)
